Results reported in patent publication US20080176902A1, “Salt III” (ASTRAZENECA AB, priority 2005, published 2008).

Target: T1, recombinant human CCR1 (Homo sapiens, UniProt P32246)
T1 construct: expressed in transfected cells; membranes prepared from them
T1 sequence (P32246 1-355): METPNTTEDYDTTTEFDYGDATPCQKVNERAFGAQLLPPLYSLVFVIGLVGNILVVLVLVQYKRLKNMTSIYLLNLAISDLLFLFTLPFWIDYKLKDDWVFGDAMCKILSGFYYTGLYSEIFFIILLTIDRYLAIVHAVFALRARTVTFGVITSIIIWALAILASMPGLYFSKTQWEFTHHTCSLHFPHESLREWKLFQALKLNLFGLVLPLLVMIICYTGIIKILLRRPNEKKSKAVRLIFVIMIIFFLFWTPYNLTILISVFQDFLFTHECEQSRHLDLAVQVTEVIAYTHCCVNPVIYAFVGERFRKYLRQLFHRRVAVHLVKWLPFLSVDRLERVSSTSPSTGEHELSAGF
Experiment: Human CCR1 binding assay ([125I] MIP-1α displacement, HEK-CCR1 membranes)
Details: HEK293 membranes expressing recombinant human CCR1; 33 pM [125I] MIP-1α
Description: HEK293 cells, from ECACC, stably expressing recombinant human CCR1 (HEK-CCR1) were used to prepare cell membranes containing CCR1. The membranes were stored at −70° C. The concentration of membranes of each batch was adjusted to 10% specific binding of 33 pM [^125I] MIP-1α.
100 μL of HEK-CCR1 membranes diluted in assay buffer pH 7.4 (137 mM NaCl (Merck, Cat No 1.06404), 5.7 mM Glucose (Sigma, Cat No G5400), 2.7 mM KCl (Sigma, Cat No P-9333), 0.36 mM NaH2PO4×H2O (Merck, Cat No 1.06346), 10 mM HEPES (Sigma, Cat No H3375), 0.1% (w/v) Gelatine (Sigma, Cat No G2625)) with the addition of 17500 units/L Bacitracin (Sigma, Cat No B1025) were added to each well of the 96 well filter plate (0.45 μm opaque Millipore cat no MHVB N4550). […] 12 μl assay buffer with 10% DMSO was added to certain wells (without compound) to detect maximal binding (B0).
12 μL [^125I] MIP-1α, diluted in assay buffer to a final concentration in the wells of 33 pM, was added to all wells. The plates with lid were then incubated for 1.5 hrs at room temperature. After incubation the wells were emptied by vacuum filtration (MultiScreen Resist Vacuum Manifold system, Millipore) and washed once with 200 μl assay buffer. After the wash, all wells received an addition of 50 μL of scintillation fluid (OptiPhase “Supermix”, Wallac Oy, Turko, Finland). Bound [^125I] MIP-1: was measured using a Wallac Trilux 1450 MicroBeta counter. […]

Compound: CC(=O)Nc1ccc(O)cc1OC[C@@](C)(O)CNC1CCN(Cc2ccc(Cl)cc2)CC1 [N-{2-[((2S)-3-{[1-(4-chlorobenzyl)piperidin-4-yl]amino}-2-hydroxy-2-methylpropyl)oxy]-4-hydroxyphenyl}acetamide ditrifluoroacetate]
- IC50: < 50 nM
